The values that follow come from patent US10167302B2, “Phosphonate nucleosides useful in the treatment of viral diseases” (University College Cork, priority 2014, dated 2019).

One series addresses T1, HIV-1 RT (Human immunodeficiency virus type 1 group M subtype B, UniProt P04585).
T1 construct: HIV-1 RT Assays in the Presence of Artificial Template/Primer
The experiment in a line: HIV-1 RT assay in the presence of artificial template/primer. The class given is biochemical. As to the method:
HIV-1 RT Assays in the Presence of Artificial Template/Primer
To prepare the template/primers for the RT experiments, 0.15 mM poly(U), poly(A), and poly(I) were mixed with an equal volume of 0.0375 mM oligo(dA), oligo(dT), and oligo(dC), respectively. The final concentrations of the templates in the RT reaction mixture were 0.015 mM. The reaction mixture (50 μl) contained 50 mM Tris.HCl (pH 7.8), 5 mM dithiothreitol, 300 mM glutathione, 500 μM EDTA, 150 mM KCl, 5 mM MgCl2, 1.25 μg of bovine serum albumin, an appropriate concentration of labeled (tritiated) substrate dTTP, dCTP, or dATP (2 μCi/assay), a fixed concentration of the template/primer poly(A).oligo(dT) (0.015 mM), poly(I).oligo(dC) (0.015 mM), and poly(U).oligo(dA) (0.015 mM), 0.06% Triton X-100, 10 μl of inhibitor solution (containing various concentrations of the compounds), and 1 μl of the RT preparation. The reaction mixtures were incubated at 37° C. for 30 min, at which time 100 μl of yeast RNA (1 mg/ml) and 1 ml of Na4P2O7 (0.02 M) in trichloroacetic acid (5% v/v) were added. The solutions were kept on ice for 30 min, after which the acid-insoluble material was washed and analyzed for radioactivity.

The target in the next series is HSV-1 DNA pol (Human herpesvirus 1, UniProt P04293). The series is described as follows: HSV-1 DNA polymerase activity, calf thymus DNA as template primer. The class given is biochemical. The settings on record: [3H]dTTP incorporation, all four dNTPs. How it is done: (§1) The HCMV and HSV-1 DNA polymerase activity was measured in the presence of calf thymus DNA as template primer, and all four dNTPs as the nucleotide substrates of which dTTP was tritiated.
HSV-1 DNA pol, sequence (P04293 whole entry): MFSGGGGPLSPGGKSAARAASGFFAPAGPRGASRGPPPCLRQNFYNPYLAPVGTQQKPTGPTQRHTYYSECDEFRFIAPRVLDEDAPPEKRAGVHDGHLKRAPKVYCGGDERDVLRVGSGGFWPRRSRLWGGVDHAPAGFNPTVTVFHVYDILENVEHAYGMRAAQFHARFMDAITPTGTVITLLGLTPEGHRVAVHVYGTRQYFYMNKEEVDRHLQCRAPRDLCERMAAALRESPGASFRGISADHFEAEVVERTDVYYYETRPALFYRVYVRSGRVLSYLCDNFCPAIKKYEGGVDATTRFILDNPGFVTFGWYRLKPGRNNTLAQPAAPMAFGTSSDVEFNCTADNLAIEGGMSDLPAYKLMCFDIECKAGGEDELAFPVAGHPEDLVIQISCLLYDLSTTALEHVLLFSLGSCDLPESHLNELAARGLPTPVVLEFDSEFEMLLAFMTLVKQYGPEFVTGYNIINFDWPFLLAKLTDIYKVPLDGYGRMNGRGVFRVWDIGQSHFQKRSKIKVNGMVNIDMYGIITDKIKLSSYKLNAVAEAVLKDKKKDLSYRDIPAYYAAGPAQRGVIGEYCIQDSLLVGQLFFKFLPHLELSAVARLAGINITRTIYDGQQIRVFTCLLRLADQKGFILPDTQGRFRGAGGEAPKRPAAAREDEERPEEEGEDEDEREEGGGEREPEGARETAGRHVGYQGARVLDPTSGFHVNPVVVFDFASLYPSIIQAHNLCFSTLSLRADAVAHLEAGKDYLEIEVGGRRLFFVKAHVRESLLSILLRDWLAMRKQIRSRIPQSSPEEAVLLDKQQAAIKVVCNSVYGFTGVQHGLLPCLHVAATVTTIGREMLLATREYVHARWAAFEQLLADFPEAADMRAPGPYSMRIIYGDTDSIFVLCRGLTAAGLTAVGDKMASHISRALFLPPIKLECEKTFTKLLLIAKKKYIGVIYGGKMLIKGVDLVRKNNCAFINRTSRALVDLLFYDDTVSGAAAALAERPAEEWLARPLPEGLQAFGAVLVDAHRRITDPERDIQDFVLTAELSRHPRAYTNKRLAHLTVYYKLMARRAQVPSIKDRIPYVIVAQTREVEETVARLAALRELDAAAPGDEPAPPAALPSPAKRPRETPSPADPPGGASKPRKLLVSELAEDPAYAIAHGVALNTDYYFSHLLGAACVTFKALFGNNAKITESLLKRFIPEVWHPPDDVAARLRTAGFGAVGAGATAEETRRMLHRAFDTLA

In the next series the target is HCMV DNA pol (Human cytomegalovirus, UniProt P08546). The series is described as follows: HCMV DNA polymerase activity, calf thymus DNA as template primer. Conditions: [3H]dTTP incorporation, all four dNTPs. The class given is biochemical. How it is done:
as §1

The mark [1] stands for this setting: values marked *: in poly rA.dT/dTTP RT assay, read-out: IC50 HIV-1 RT.

Read-outs that look alike come from different tables or passages of the source. Some results are limits rather than exact numbers.

HCMV DNA pol, sequence (P08546 whole entry): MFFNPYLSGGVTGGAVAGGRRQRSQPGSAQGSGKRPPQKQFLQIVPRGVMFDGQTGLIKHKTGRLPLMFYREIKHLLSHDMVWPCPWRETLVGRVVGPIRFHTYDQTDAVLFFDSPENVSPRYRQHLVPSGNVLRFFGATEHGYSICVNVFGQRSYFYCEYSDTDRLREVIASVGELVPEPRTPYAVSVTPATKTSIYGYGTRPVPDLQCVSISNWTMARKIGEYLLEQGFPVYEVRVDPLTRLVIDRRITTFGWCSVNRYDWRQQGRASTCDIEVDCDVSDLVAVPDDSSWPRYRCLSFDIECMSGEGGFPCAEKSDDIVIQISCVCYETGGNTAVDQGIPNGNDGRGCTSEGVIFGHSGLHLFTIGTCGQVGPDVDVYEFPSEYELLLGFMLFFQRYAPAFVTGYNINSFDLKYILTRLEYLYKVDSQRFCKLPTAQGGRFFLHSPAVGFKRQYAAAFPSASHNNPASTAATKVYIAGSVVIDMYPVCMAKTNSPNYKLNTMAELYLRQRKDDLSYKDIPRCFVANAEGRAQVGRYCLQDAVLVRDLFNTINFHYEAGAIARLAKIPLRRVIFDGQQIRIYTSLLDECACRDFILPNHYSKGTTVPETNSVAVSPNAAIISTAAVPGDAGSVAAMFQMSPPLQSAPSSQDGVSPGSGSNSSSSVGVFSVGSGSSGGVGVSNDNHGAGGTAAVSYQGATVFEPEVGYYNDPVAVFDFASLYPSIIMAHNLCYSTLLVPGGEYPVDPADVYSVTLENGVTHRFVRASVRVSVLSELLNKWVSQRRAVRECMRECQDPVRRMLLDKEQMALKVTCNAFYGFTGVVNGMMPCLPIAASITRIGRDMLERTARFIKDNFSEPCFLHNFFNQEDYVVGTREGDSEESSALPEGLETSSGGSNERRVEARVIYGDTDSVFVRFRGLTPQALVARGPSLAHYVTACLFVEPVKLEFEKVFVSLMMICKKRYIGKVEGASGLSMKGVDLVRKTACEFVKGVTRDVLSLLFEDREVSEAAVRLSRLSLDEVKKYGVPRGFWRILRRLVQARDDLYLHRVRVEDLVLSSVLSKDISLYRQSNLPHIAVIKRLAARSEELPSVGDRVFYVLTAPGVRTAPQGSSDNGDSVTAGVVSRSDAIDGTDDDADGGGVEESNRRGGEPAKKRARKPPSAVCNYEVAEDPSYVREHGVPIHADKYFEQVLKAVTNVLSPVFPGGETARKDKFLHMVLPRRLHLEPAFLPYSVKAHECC

As to `Cc1cn(CCOC(C(=O)O)P(=O)(O)O)c(=O)[nH]c1=O` (stereo not drawn) [Compound 8a, 2-(2-(5-Methyl-2,4-dioxo-3,4-dihydropyrimidin-1(2H)-yl)ethoxy)-2-phosphonoacetic acid], the IC50 at HIV-1 RT came to 17 µM; against HSV-1 DNA pol, 19 µM; at HCMV DNA pol, 161 ± 8 µM.

Take `Cc1cn(CC(C)OC(C(=O)O)P(=O)(O)O)c(=O)[nH]c1=O` (stereo not drawn) [Compound 8b, 2-((1-(5-Methyl-2,4-dioxo-3,4-dihydropyrimidin-1(2H)-yl)propan-2-yl)oxy)-2-phosphonoacetic acid]: the 50% inhibitory concentration (IC50) on HIV-1 RT is 18 µM; against HSV-1 DNA pol, 12 µM; on HCMV DNA pol, 111 ± 24 µM.

In the case of `Cc1cn(C(C)COC(C(=O)O)P(=O)(O)O)c(=O)[nH]c1=O` (stereo not drawn) [Compound 8c, 2-(2-(5-Methyl-2,4-dioxo-3,4-dihydropyrimidin-1(2H)-yl)propoxy)-2-phosphonoacetic acid], the IC50 at HIV-1 RT was 133 ± 16 µM; against HSV-1 DNA pol, 16 µM; against HCMV DNA pol, more than 200 µM.

Take `Cc1cn(C/C=C\COC(C(=O)O)P(=O)(O)O)c(=O)[nH]c1=O` (stereo not drawn) [Compound 13a, cis-2-(4-(2,4-Dioxo-5-methyl-pyrimidin-1-yl)but-2-enyloxy)-2-phosphonoacetic acid]: the concentration for half-maximal inhibition (IC50) on HIV-1 RT stood at 235 ± 16 µM; against HSV-1 DNA pol, 20 µM; on HCMV DNA pol, 2.1 ± 0.6 µM.

In the case of `Cc1cn(CC#CCOC(C(=O)O)P(=O)(O)O)c(=O)[nH]c1=O` (stereo not drawn) [Compound 13b, 2-(4-(2,4-Dioxo-5-methyl-pyrimidin-1-yl)but-2-ynyloxy)-2-phosphonoacetic acid], the concentration for half-maximal inhibition (IC50) on HIV-1 RT and against HCMV DNA pol was more than 500 µM throughout.

In the case of `Cc1cn(C[C@H]2C[C@H]2COC(C(=O)O)P(=O)(O)O)c(=O)[nH]c1=O` (stereo partly drawn) [Compound 13c], the IC50 on HIV-1 RT was determined as 440 ± 85 µM; against HSV-1 DNA pol it was 35 µM; at HCMV DNA pol, 4.6 ± 0.2 µM.

As for `Cc1cn(C[C@H]2CCC[C@H]2COC(C(=O)O)P(=O)(O)O)c(=O)[nH]c1=O` (stereo partly drawn) [Compound 13d], the concentration for half-maximal inhibition (IC50) on HIV-1 RT was not below 500 µM; at HSV-1 DNA pol, 34 µM; against HCMV DNA pol, 40 ± 25 µM.

For `Cc1cn(C[C@H]2CC=CC[C@H]2COC(C(=O)O)P(=O)(O)O)c(=O)[nH]c1=O` (stereo partly drawn) [Compound 13e], the results for the IC50 on HIV-1 RT, at HSV-1 DNA pol and on HCMV DNA pol were 425 ± 106 µM, 16 µM and 3 ± 0.5 µM, respectively.

For the compound `Cc1cn(C[C@H]2C3C=CC(C3)[C@H]2COC(C(=O)O)P(=O)(O)O)c(=O)[nH]c1=O` (stereo partly drawn) [Compound 13f], the IC50 came to 340 ± 139 µM on HIV-1 RT, 32 µM against HSV-1 DNA pol and 14 ± 2 µM against HCMV DNA pol.

As to `Cc1cn(Cc2ccccc2COC(C(=O)O)P(=O)(O)O)c(=O)[nH]c1=O` (stereo not drawn) [Compound 13g, 2-(2-((2,4-Dioxo-5-methyl-pyrimidin-1-yl)methyl)benzyloxy)-2-phosphonoacetic acid], the IC50 at HIV-1 RT stood at 131 ± 86 µM; against HSV-1 DNA pol, 11 µM; on HCMV DNA pol it was 13 ± 4 µM.

Take `Cc1cn(CCCCOC(C(=O)O)P(=O)(O)O)c(=O)[nH]c1=O` (stereo not drawn) [Compound 13h, 2-(4-(2,4-Dioxo-5-methyl-pyrimidin-1-yl)butyloxy)-2-phosphonoacetic acid]: the IC50 on HIV-1 RT turned out to be 145 ± 106 µM; at HSV-1 DNA pol, 56 µM; on HCMV DNA pol, 29 ± 3 µM.

Regarding `Cc1cn(C[C@H]2CCCC[C@H]2COC(C(=O)O)P(=O)(O)O)c(=O)[nH]c1=O` (stereo partly drawn) [Compound 13i], the 50% inhibitory concentration (IC50) on HIV-1 RT was not below 500 µM; at HSV-1 DNA pol, 13 µM; at HCMV DNA pol it was 4 µM.

Turning to `COC(=O)C(OC[C@@H]1CCCC[C@@H]1Cn1cc(C)c(=O)[nH]c1=O)P(=O)(O)O` (stereo partly drawn) [Compound 13j], the IC50 was not below 500 µM at HIV-1 RT, 43 µM against HSV-1 DNA pol and 16 ± 3 µM against HCMV DNA pol.

`O=C(O)C(OC/C=C\Cn1cc(F)c(=O)[nH]c1=O)P(=O)(O)O` (stereo not drawn) [Compound 13k, 2-Cis-(4-(5-fluoro-2,4-dioxo-3,4-dihydropyrimidin-1(2H)-yl)but-2-enyloxy)-2-phosphonoacetic acid]: the half-inhibitory concentration (IC50) on HIV-1 RT (setting [1]) is more than 500 µM.

Take `O=C(O)C(OCCCCn1cc(F)c(=O)[nH]c1=O)P(=O)(O)O` (stereo not drawn) [Compound 13l, 2-(4-(5-fluoro-2,4-dioxo-3,4-dihydropyrimidin-1(2H)-yl)butoxy)-2-phosphonoacetic acid]: the IC50 on HIV-1 RT (setting [1]) amounted to 214 µM.

In the case of `Nc1ncnc2c1ncn2C/C=C\COC(C(=O)O)P(=O)(O)O` (stereo not drawn) [Compound 13m, 2-Cis-(4-(6-amino-9H-purin-9-yl)but-2-enyloxy)-2-phosphonoacetic acid], the IC50 on HIV-1 RT (setting [1]) came to 426 µM.

On to `Nc1nc(Cl)c2ncn(C/C=C\COC(C(=O)O)P(=O)(O)O)c2n1` (stereo not drawn) [Compound 13n, 2-Cis-(4-(2-amino-6-chloro-9H-purin-9-yl)but-2-enyloxy)-2-phosphonoacetic acid], for which the IC50 on HIV-1 RT (setting [1]) was not below 500 µM.

Consider `Nc1ccn(C/C=C\COC(C(=O)O)P(=O)(O)O)c(=O)n1` (stereo not drawn) [Compound 13o, 2-Cis-(4-(4-amino-2-oxopyrimidin-1(2H)-yl)but-2-enyloxy)-2-phosphonoacetic acid], for which the IC50 on HIV-1 RT (setting [1]) came out at 246 µM.

In turn, `Cc1cn(Cc2cn(CCOC(C(=O)O)P(=O)(O)O)nn2)c(=O)[nH]c1=O` (stereo not drawn) [JJ-210, 2-(2-(4-((5-methyl-2,4-dioxo-3,4-dihydropyrimidin-1(2H)-yl)methyl)-1H-1,2,3-triazol-1-yl)ethoxy)-2-phosphonoacetic acid] displayed a melting point of 189 to 191 °C.

In turn, `Cc1cn(C[C@@H](O)[C@@H](O)COC(C(=O)O)P(=O)(O)O)c(=O)[nH]c1=O` (stereo partly drawn) [JJ-379] had a melting point of 199 to 201 °C.

As usually defined, the IC50 is the concentration needed to halve the response being measured. Broadly, the melting point is the temperature, or range, at which the solid turns liquid.
